ChEMBL document CHEMBL1136248, “Further SAR studies on novel small molecule inhibitors of the hepatitis C (HCV) NS5B polymerase” (Bioorg Med Chem Lett, 2003)

Biological target: Genome polyprotein (Hepatitis C virus genotype 1a (isolate 1) (HCV), UniProt P26664)
Experiment: Inhibition of Hepatitis C RNA dependent RNA polymerase Nonstructural protein 5B activity.

Chain of Genome polyprotein (P26664 2421-3011 limits assumed): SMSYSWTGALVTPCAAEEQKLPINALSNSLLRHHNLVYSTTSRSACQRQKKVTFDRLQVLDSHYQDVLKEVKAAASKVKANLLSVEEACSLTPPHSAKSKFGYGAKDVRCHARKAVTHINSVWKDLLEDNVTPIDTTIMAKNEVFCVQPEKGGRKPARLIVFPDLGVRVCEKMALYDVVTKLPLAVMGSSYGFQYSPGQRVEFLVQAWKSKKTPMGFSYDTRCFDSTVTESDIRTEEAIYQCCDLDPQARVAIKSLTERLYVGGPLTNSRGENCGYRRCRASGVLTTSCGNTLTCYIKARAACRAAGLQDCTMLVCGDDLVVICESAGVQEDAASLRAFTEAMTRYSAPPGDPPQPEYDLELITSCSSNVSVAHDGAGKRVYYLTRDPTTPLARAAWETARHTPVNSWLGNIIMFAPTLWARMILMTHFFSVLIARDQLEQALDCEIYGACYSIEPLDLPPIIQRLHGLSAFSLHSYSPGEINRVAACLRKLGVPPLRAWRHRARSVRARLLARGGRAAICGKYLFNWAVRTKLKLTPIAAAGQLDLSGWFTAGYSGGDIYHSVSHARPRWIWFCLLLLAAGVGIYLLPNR

O=C(O)[C@H](Cc1ccccc1)N(Cc1cccc(Br)c1)Cc1ccc(Cl)cc1Cl
IC50: 26 µM

CCc1cc(Cl)ccc1C(=O)N(Cc1cccc(Br)c1)[C@@H](Cc1ccccc1)C(=O)O
IC50: 5.6 µM

O=C(O)[C@H](Cc1ccccc1)N(Cc1cccc(Br)c1)C(=O)c1ccc(F)cc1F
IC50: 43 µM

O=C(O)[C@H](Cc1ccccc1)N(Cc1cccc(Br)c1)C(=O)c1c(Cl)cc(Cl)cc1Cl
IC50: 13 µM

O=C(O)[C@H](Cc1ccccc1)N(Cc1cccc(Br)c1)C(=O)c1ccc(Cl)cc1Cl
IC50: 3.5 µM

O=C(O)[C@H](Cc1ccccc1)N(Cc1cccc(Br)c1)C(=O)c1ccc(Cl)nc1Cl
IC50: 31 µM

O=C(O)[C@H](Cc1ccccc1)N(Cc1cccc(Br)c1)C(=O)c1ccccc1Cl
IC50: 31 µM

O=C(O)[C@H](Cc1ccccc1)N(Cc1cccc(Br)c1)C(=O)c1ccc(Cl)cc1
IC50: 10.6 µM

O=C(O)[C@H](Cc1ccccc1)N(Cc1cccc(Br)c1)C(=O)c1ccccc1
IC50: > 50 µM

COc1ccc(C(=O)N(Cc2cccc(Br)c2)[C@@H](Cc2ccccc2)C(=O)O)c(OC)c1
IC50: 10.7 µM

O=C(O)[C@H](Cc1ccccc1)N(Cc1cccc(Br)c1)C(=O)c1ccc(Cl)cc1Br
IC50: 5 µM

Cc1ccc(C(=O)N(Cc2cccc(Br)c2)[C@@H](Cc2ccccc2)C(=O)O)c(C)c1
IC50: 5.9 µM

COc1cc(Cl)ccc1C(=O)N(Cc1cccc(Br)c1)[C@@H](Cc1ccccc1)C(=O)O
IC50: 11 µM

Cc1cc(Cl)ccc1C(=O)N(Cc1cccc(Br)c1)[C@@H](Cc1ccccc1)C(=O)O
IC50: 3.7 µM

O=C(O)[C@H](Cc1ccccc1)N(Cc1cccc(Br)c1)C(=O)c1cccc(Cl)c1
IC50: 30 µM

O=C(O)[C@H](Cc1ccccc1)N(Cc1cccc(Br)c1)C(=O)Nc1ccc(Cl)cc1Cl
IC50: 31 µM

O=C(O)[C@H](Cc1ccccc1)N(Cc1cccc(Br)c1)C(=O)c1ccc(Cl)cc1I
IC50: 2.7 µM

O=C(O)[C@H](Cc1ccccc1)N(Cc1cccc(Br)c1)c1ccc(Cl)cc1Cl
IC50: 15 µM

O=C(O)[C@H](Cc1ccccc1)N(Cc1cccc(Br)c1)S(=O)(=O)c1ccc(Cl)cc1Cl
IC50: 31 µM

O=C(O)[C@H](Cc1ccccc1)N(Cc1cccc(Br)c1)C(=O)c1ccc(Cl)c(Cl)c1
IC50: 30 µM
